Assay results from patent US20060014801A1, “Prevention and treatment of cognitive impairment using (R)-(-)-5-methyl-1-nicotynoyl-2-pyrazoline (MNP) and analogs” (The Johns Hopkins University, priority 2002, published 2006).

How the values were obtained:
GLT1B = test: Western blot of GLT1B protein expression in hippocampus of young rats after 7 days s.c. MNP; format: in vivo, Long-Evans rats; settings: 50 mg/kg/day s.c. minipump
Method: Administration of MNP: Twelve young Long-Evans rats, weighing approximately 400-500 grams, received treatment with either vehicle (0.9% saline; n=6) or MNP (50 mg/kg/day; n=6). The rats were administered MNP and vehicle continuously for one week via an osmotic minipump (Alzet, model 2ML1) implanted subcutaneously on the back, slightly posterior to the scapulae. After 7 days of treatment, the rats were sacrificed, their brains were removed, the hippocampi dissected out, frozen on dry ice and sent for Western blot analysis. The implanted minipump was also removed to verify proper drug delivery by measuring residual volume.
Preparation of brain tissue; Hippocampi were homogenized in 2 ml sucrose buffer (20 mM Tris pH 7.4, 10% sucrose, complete protease inhibitor cocktail mini-tablets [Roche cat#1-836-153]) for 25 seconds (Omni 115V Tissue Homogenizer TH-115). SDS (at 2%) was immediately added to the homogenate, and the samples were sonicated (Branson Sonifier 250; 10 pulses each). Extracts were total cellular extracts solubilized in SDS and include both cytoplasmic and membrane-bound GLT1.
Western blot analysis: Immunoblotting was performed using a LICOR Odyssey based system which uses IRDye 800 and Alexa Fluor 680 labeled secondary antibodies and signal is detected by diode lasers sensitive to infrared emissions of different wavelength. […]

rat = test: Other behavioral measures in the rat; format: in vivo; settings: 10 mg/kg/day
aged impaired (AI) rats = format: in vivo; settings: 50 mg/kg/day s.c. minipump
Method: Spatial memory version of the Morris water maze: Behavioral testing is conducted by an experimenter who is blind to drug treatment. Fourteen 25-27 month-old Long-Evans rats, previously characterized as cognitively impaired (AI rats), were tested in a modified version of the Morris water maze (MWM) task using the same MWM apparatus as described above. Unlike the traditional protocol wherein the platform location remained constant throughout training, the escape platform location in this spatial memory version of the task varied from day-to-day (in one of nine different positions).
AI rats were given six training trials per day with a 60-sec intertrial interval. On each training trial, the rat was released in the maze from one of four equally spaced starting positions around the perimeter of the pool. […] Following the six training trials, the rat is returned to its home cage and placed in the animal housing room. After a delay of four hours, the rat is given one additional testing trial (the “retention trial”) with the escape platform located in the same position as in the 6 training trials. The length of the rat's swim path to reach the escape platform is measured in all six training trials and the retention trial. Spatial memory in this task is measured by comparing the swim path lengths in the retention trial with the sixth (and final) training trial. […] A greater difference in performance in these two trials represents a greater degree of forgetting. After two days of acclimation to these procedures, this test protocol is given for nine consecutive days, with the position of the escape platform moved daily.
MNP enhances the cognitive performance of aged rats in the spatial memory version of the MWM: Following characterization for cognitive status with a traditional MWM protocol, impaired aged rats were assigned to one of two treatment conditions (vehicle controls or MNP). […] AI rats were pretreated with either vehicle or MNP for 9 days prior to behavioral testing. Osmotic minipumps (Alzet) were filled with either vehicle (0.9% saline) or MNP (50 mg/kg/day) and implanted subcutaneously. Initially, Alzet pumps that administer compound for one week were implanted; after seven days, these pumps (now empty) were removed and replaced with full two-week pumps allowing delivery of either MNP or saline for a total of 21 days. On Day 9 of treatment with either vehicle or MNP, MWM testing was begun. Data were collected in two replications with vehicle- and drug-treated rats represented in each. A total of 9 vehicle-treated and 5 MNP-treated rats completed the entire protocol. Several rats in both treatment groups, however, died during the execution of the study. […]

In the case of C[C@@H]1CC=NN1C(=O)c1cccnc1 [MNP, (R)-(−)-5-methyl-1-nicotinoyl-2-pyrazoline], the “GLT1B immunoreactivity compared to vehicle controls” value (GLT1B) is reported as “no difference”, the “Efficacy in other behavioral measures in the rat” value (rat) is reported as “efficacious” and the “Difference in performance between final training trial and retention trial” value (aged impaired (AI) rats; 4-hour delay) is reported as “no significant difference in performance”. For the same compound, the “Performance in retention trials vs vehicle-treated controls” value (aged impaired (AI) rats; 4-hour delay, Days 9-11 of treatment) was “performed significantly better”, the “Savings scores (memory for the platform location) vs vehicle-treated controls” value (aged impaired (AI) rats; Mann Whitney U test p<0.05) was “significantly better than vehicle-treated controls” and the “Performance on training trials 1-6 vs vehicle group” value (aged impaired (AI) rats; two-way analysis of variance) was “no significant difference between the groups”.
